#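 Step 1: Grow cells in 96-well plates. Step 2: Expose to compound for 48 hours at 5 concentrations. Step 3: Interpolate endpoints linearly; if unreached, use highest concentration. GI50 = concentration required for 50% inhibition of growth. At the TGI there is no net growth.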
# Legend:
# Assay in all cases: NCI anticancer screen, dose series, 48 h
# RXF 393 renal = tested on: RXF 393 renal
# UO-31 renal = tested on: UO-31 renal
# K-562 leukemia = tested on: K-562 leukemia
# SK-MEL-2 melanoma = tested on: SK-MEL-2 melanoma
# HOP-62 NSCLC = tested on: HOP-62 NSCLC
# CAKI-1 renal = tested on: CAKI-1 renal
# OVCAR-4 ovarian = tested on: OVCAR-4 ovarian
# KM12 colon = tested on: KM12 colon
# 786-0 renal = tested on: 786-0 renal
# SR leukemia = tested on: SR leukemia
# HCT-116 colon = tested on: HCT-116 colon
# RPMI-8226 leukemia = tested on: RPMI-8226 leukemia
# A549 NSCLC = tested on: A549 NSCLC
# HT29 colon = tested on: HT29 colon
# EKVX NSCLC = tested on: EKVX NSCLC
# SW-620 colon = tested on: SW-620 colon
# SNB-19 CNS = tested on: SNB-19 CNS
# SF-539 CNS = tested on: SF-539 CNS
# MCF7 breast = tested on: MCF7 breast
# SNB-75 CNS = tested on: SNB-75 CNS
# NCI-H522 lung = tested on: NCI-H522 lung
# OVCAR-8 ovarian = tested on: OVCAR-8 ovarian
# TK-10 renal = tested on: TK-10 renal
# SF-295 CNS = tested on: SF-295 CNS
# HCC-2998 colon = tested on: HCC-2998 colon
# HS 578T breast = tested on: HS 578T breast
# SK-MEL-5 melanoma = tested on: SK-MEL-5 melanoma
# MDA-MB-231 breast = tested on: MDA-MB-231 breast
# UACC-257 melanoma = tested on: UACC-257 melanoma
# MALME-3M melanoma = tested on: MALME-3M melanoma
# SF-268 CNS = tested on: SF-268 CNS
# IGROV1 ovarian = tested on: IGROV1 ovarian
# MOLT-4 leukemia = tested on: MOLT-4 leukemia
# CCRF-CEM leukemia = tested on: CCRF-CEM leukemia
# OVCAR-3 ovarian = tested on: OVCAR-3 ovarian
# NCI-H23 lung = tested on: NCI-H23 lung
# COLO 205 colon = tested on: COLO 205 colon
# OVCAR-5 ovarian = tested on: OVCAR-5 ovarian
# M14 melanoma = tested on: M14 melanoma
# ACHN renal = tested on: ACHN renal
# MDA-MB-435 = tested on: MDA-MB-435
# NCI/ADR-RES ovarian = tested on: NCI/ADR-RES ovarian
# DU-145 prostate = tested on: DU-145 prostate
# HCT-15 colon = tested on: HCT-15 colon
# NCI-H226 lung = tested on: NCI-H226 lung
# A498 renal = tested on: A498 renal
# SK-MEL-28 melanoma = tested on: SK-MEL-28 melanoma
# MDA-MB-468 breast = tested on: MDA-MB-468 breast
# LOX IMVI melanoma = tested on: LOX IMVI melanoma
# U251 CNS = tested on: U251 CNS
# SN12C renal = tested on: SN12C renal
# HOP-92 NSCLC = tested on: HOP-92 NSCLC
# UACC-62 melanoma = tested on: UACC-62 melanoma
# NCI-H460 lung = tested on: NCI-H460 lung
# PC-3 prostate = tested on: PC-3 prostate
# BT-549 breast = tested on: BT-549 breast
# SK-OV-3 ovarian = tested on: SK-OV-3 ovarian
# HL-60(TB) leukemia = tested on: HL-60(TB) leukemia
# T-47D breast = tested on: T-47D breast
smiles,measurement,setting,value
COc1ccc(/C=C/C(=O)c2ccc(N3CCN(C)CC3)cc2)c(C(F)(F)F)c1,GI50,RXF 393 renal,4.12 µM
same,TGI,RXF 393 renal,18.9 µM
same,GI50,UO-31 renal,12.3 µM
same,TGI,UO-31 renal,24.7 µM
same,GI50,K-562 leukemia,2.96 µM
same,TGI,K-562 leukemia,22.1 µM
same,GI50,SK-MEL-2 melanoma,17.5 µM
same,TGI,SK-MEL-2 melanoma,32.7 µM
same,GI50,HOP-62 NSCLC,19.3 µM
same,TGI,HOP-62 NSCLC,37 µM
same,GI50,CAKI-1 renal,14.2 µM
same,TGI,CAKI-1 renal,27.5 µM
same,GI50,OVCAR-4 ovarian,15.5 µM
same,TGI,OVCAR-4 ovarian,34.4 µM
same,GI50,KM12 colon,11 µM
same,TGI,KM12 colon,24.9 µM
same,GI50,786-0 renal,12.5 µM
same,TGI,786-0 renal,37.7 µM
same,GI50,SR leukemia,6.74 µM
same,TGI,SR leukemia,> 100 µM
same,GI50,HCT-116 colon,5.61 µM
same,TGI,HCT-116 colon,39 µM
same,GI50,RPMI-8226 leukemia,3.4 µM
same,TGI,RPMI-8226 leukemia,47.7 µM
same,GI50,A549 NSCLC,13.2 µM
same,TGI,A549 NSCLC,30.1 µM
same,GI50,HT29 colon,4.88 µM
same,TGI,HT29 colon,22.3 µM
same,GI50,EKVX NSCLC,12.7 µM
same,TGI,EKVX NSCLC,25.4 µM
same,GI50,SW-620 colon,11.2 µM
same,TGI,SW-620 colon,23.9 µM
same,GI50,SNB-19 CNS,14.8 µM
same,TGI,SNB-19 CNS,27.9 µM
same,GI50,SF-539 CNS,14.2 µM
same,TGI,SF-539 CNS,27.2 µM
same,GI50,MCF7 breast,4.6 µM
same,TGI,MCF7 breast,19.5 µM
same,GI50,SNB-75 CNS,11.7 µM
same,TGI,SNB-75 CNS,24.5 µM
same,GI50,NCI-H522 lung,15.9 µM
same,TGI,NCI-H522 lung,31.9 µM
same,GI50,OVCAR-8 ovarian,20.8 µM
same,TGI,OVCAR-8 ovarian,49.3 µM
same,GI50,TK-10 renal,17.7 µM
same,TGI,TK-10 renal,32.8 µM
same,GI50,SF-295 CNS,13.9 µM
same,TGI,SF-295 CNS,27.2 µM
same,GI50,HCC-2998 colon,12 µM
same,TGI,HCC-2998 colon,24.3 µM
same,GI50,HS 578T breast,14.9 µM
same,TGI,HS 578T breast,46.5 µM
same,GI50,SK-MEL-5 melanoma,7.97 µM
same,TGI,SK-MEL-5 melanoma,20.6 µM
same,GI50,MDA-MB-231 breast,16.8 µM
same,TGI,MDA-MB-231 breast,30.5 µM
same,GI50,UACC-257 melanoma,15.3 µM
same,TGI,UACC-257 melanoma,30.8 µM
same,GI50,MALME-3M melanoma,12.9 µM
same,TGI,MALME-3M melanoma,25.6 µM
same,GI50,SF-268 CNS,18.9 µM
same,TGI,SF-268 CNS,41 µM
same,GI50,IGROV1 ovarian,15.4 µM
same,TGI,IGROV1 ovarian,29 µM
same,GI50,MOLT-4 leukemia,9.11 µM
same,TGI,MOLT-4 leukemia,32.8 µM
same,GI50,CCRF-CEM leukemia,7.61 µM
same,TGI,CCRF-CEM leukemia,53.1 µM
same,GI50,OVCAR-3 ovarian,14.4 µM
same,TGI,OVCAR-3 ovarian,29.3 µM
same,GI50,NCI-H23 lung,11.2 µM
same,TGI,NCI-H23 lung,23.2 µM
same,GI50,COLO 205 colon,15.6 µM
same,TGI,COLO 205 colon,35.5 µM
same,GI50,OVCAR-5 ovarian,16.2 µM
same,TGI,OVCAR-5 ovarian,29.7 µM
same,GI50,M14 melanoma,14.4 µM
same,TGI,M14 melanoma,34.5 µM
same,GI50,ACHN renal,15.1 µM
same,TGI,ACHN renal,28.3 µM
same,GI50,MDA-MB-435,11.3 µM
same,TGI,MDA-MB-435,24.7 µM
same,GI50,NCI/ADR-RES ovarian,13.2 µM
same,TGI,NCI/ADR-RES ovarian,26.4 µM
same,GI50,DU-145 prostate,14.9 µM
same,TGI,DU-145 prostate,31.2 µM
same,GI50,HCT-15 colon,4.61 µM
same,TGI,HCT-15 colon,16.5 µM
same,GI50,NCI-H226 lung,12.4 µM
same,TGI,NCI-H226 lung,28.3 µM
same,GI50,A498 renal,16.5 µM
same,TGI,A498 renal,30.8 µM
same,GI50,SK-MEL-28 melanoma,14.7 µM
same,TGI,SK-MEL-28 melanoma,27.9 µM
same,GI50,MDA-MB-468 breast,3.54 µM
same,TGI,MDA-MB-468 breast,13.9 µM
same,GI50,LOX IMVI melanoma,8.56 µM
same,TGI,LOX IMVI melanoma,20.9 µM
same,GI50,U251 CNS,11.7 µM
same,TGI,U251 CNS,34.4 µM
same,GI50,SN12C renal,13.3 µM
same,TGI,SN12C renal,26.4 µM
same,GI50,HOP-92 NSCLC,10.1 µM
same,TGI,HOP-92 NSCLC,25.8 µM
same,GI50,UACC-62 melanoma,14.1 µM
same,TGI,UACC-62 melanoma,27 µM
same,GI50,NCI-H460 lung,14 µM
same,TGI,NCI-H460 lung,27.9 µM
same,GI50,PC-3 prostate,13.2 µM
same,TGI,PC-3 prostate,40.4 µM
same,GI50,BT-549 breast,14.5 µM
same,TGI,BT-549 breast,29.1 µM
same,GI50,SK-OV-3 ovarian,16.7 µM
same,TGI,SK-OV-3 ovarian,33.5 µM
same,GI50,HL-60(TB) leukemia,4.87 µM
same,TGI,HL-60(TB) leukemia,24.7 µM
same,GI50,T-47D breast,13.7 µM
same,TGI,T-47D breast,34.6 µM
